Test results from paper PMC3531252 (EJNMMI Research, 2012).
Several values for one entry are separate records, joined by “and”; a condition that tells them apart may be missing. Equal values may be shown once.

Columns and labels:
[1] = biological target: T1, GlyT1 (Homo sapiens, UniProt P48067); assay: in vitro whole-hemisphere autoradiography on human brain slices; assay type: binding; settings: blocker 10 μM
T1 construct: whole-hemisphere autoradiography (ARG) on human brain slices; from tissue; host or cells: post-mortem human brain whole-hemisphere cryosections
T1 sequence (P48067 1-706): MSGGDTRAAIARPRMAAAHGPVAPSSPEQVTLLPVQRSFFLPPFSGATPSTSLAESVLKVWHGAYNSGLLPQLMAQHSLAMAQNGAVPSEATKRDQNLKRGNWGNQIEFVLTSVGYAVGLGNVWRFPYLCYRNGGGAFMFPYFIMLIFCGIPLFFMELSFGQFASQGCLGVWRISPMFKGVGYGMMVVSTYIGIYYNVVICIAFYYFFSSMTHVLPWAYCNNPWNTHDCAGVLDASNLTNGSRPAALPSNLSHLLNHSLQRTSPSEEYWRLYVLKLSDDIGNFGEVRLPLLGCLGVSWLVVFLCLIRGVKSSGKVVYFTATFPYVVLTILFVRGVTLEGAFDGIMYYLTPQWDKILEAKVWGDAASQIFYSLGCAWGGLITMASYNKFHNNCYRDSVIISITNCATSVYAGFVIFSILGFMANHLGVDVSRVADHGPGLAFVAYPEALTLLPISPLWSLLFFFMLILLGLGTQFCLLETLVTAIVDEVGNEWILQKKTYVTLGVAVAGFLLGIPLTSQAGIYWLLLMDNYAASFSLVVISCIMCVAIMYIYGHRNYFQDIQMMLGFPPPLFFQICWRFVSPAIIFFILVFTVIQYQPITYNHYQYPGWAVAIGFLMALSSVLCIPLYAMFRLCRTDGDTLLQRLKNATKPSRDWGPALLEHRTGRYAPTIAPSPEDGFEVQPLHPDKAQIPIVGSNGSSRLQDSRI
Protocol: Human brains without pathology were obtained from the National Institute of Forensic Medicine, Karolinska Institutet (Stockholm, Sweden) as well as from the Department of Forensic and Insurance Medicine, Semmelweis University, Budapest. […] The sectioning of the brains and the autoradiography experiments were performed at the Department of Clinical Neuroscience, Karolinska Institutet. The cryosectioning took place on a Leica cryomacrocut system (San Marcos, CA, USA) [28, 29]. Horizontal sections (100 μm thick, containing cerebral cortex, white matter, cerebellum, and pons) and coronal sections (100 μm thick, containing cerebral cortex, white matter, putamen, and caudate nucleus) were used. […] For comparison with other GlyT1 radioligands, blocking was also made with SSR504734 (10 μM). The slices were rinsed thrice for 3 min each with cold (5°C) washing buffer (120 mM NaCl, 50 mM Tris–HCl, pH = 7.5) and subsequently dipped into cold water. The slides were then placed on an imaging plate (Fujifilm Plate BAS-TR2025, Fujifilm, Tokyo, Japan) for 20 min. The plates were developed, and the resulting images were processed in a Fujifilm BAS-5000 phosphorimager (Fujifilm, Tokyo, Japan). […] The autoradiography (ARG) signal's optical density was measured using Multi Gauge 3.2 image analysis software (Fujifilm, Tokyo, Japan).

[2] = tested on: GlyT1; assay: GlyT1 occupancy and VND by Lassen plot, PET in rhesus monkeys; assay type: in vivo, rhesus monkey; settings: for GlyT1 occupancy: seven regions
Protocol: PET measurements were performed for 123 min immediately after i.v. injection of radioligand at baseline and after pretreatment with SSR504734. SSR504734 was administered over 15 min, starting 30 min before the radioligand injection. PET measurements were performed on two separate days with two monkeys. One baseline PET measurement and one PET measurement after pretreatment with 1.5 mg/kg of SSR504734 were performed on one monkey. One baseline PET measurement and one PET measurement after pretreatment with 4.5 mg/kg were performed on the other monkey.
GlyT1 occupancy was estimated by applying Lassen plot approach, which can determine nondisplaceable distribution volume (VND) and occupancy using VT values at baseline and after pretreatment. Seven regions (the pons, cerebellum, putamen, frontal cortex, caudate, anterior cingulate cortex, and temporal cortex) were used for the plot.

reduction of [11C]N-methyl-SSR504734 binding by blocker [1]: prominent in the white matter and pons
SMILES: O=C(N[C@@H](c1ccccc1)[C@@H]1CCCCN1)c1cccc(C(F)(F)F)c1Cl [SSR504734, reference compound]
GlyT1 occupancy ([2]; 1.5 mg/kg SSR504734, rhesus monkey 1, Lassen plot): 45% and 45.2%
GlyT1 occupancy ([2]; 4.5 mg/kg SSR504734, rhesus monkey 2, Lassen plot): 74.3%
Kd of occupancy-dose relationship ([2]; Omax assumed 100%): 1.7 mg/kg
